Measurements from patent US12319672B2, “Alpha-D-galactopyranoside derivatives” (Idorsia Pharmaceuticals Ltd, priority 2019, dated 2025).

What was measured:
[1] = target: human Gal-3 (hGal-3) (Homo sapiens (Human), UniProt P17931); assay: Competitive binding assay: binding of biotinylated hGal-3 to microplate-adsorbed asialofetuin (ASF); conditions: Activity on hGal-3; mean values of several measurements
Procedure: (§1) Evaluation of Compound Inhibitory Activity (IC50)
(§2) The inhibitory activity of compounds is determined in competitive binding assays. This spectrophotometric assay measures the binding of biotinylated human Gal-3 (hGal-3) or human Gal-1 (hGal-1), respectively, to a microplate-adsorbed glycoprotein, asialofetuin (ASF) (Proc Natl Acad Sci USA. 2013 Mar. 26; 110(13):5052-7.). Alternatively, and preferably, a human Gal-1 version in which all six cysteines are substituted by serines may be used.
(§3) Briefly, compounds are serially diluted in DMSO (working dilutions). ASF-coated 384 well plates are supplemented with 22.8 μL/well of biotinylated hGal-3 or hGal-1 in assay buffer (i.e. 300-1000 ng/mL biotinylated hGal-3 or hGal-1) to which 1.2 μL of compound working dilutions are added and mixed.
(§4) Plates are incubated for 3 hours at 4° C., then washed with cold assay buffer (3×50 uL), incubated for 1 hour with 25 μL/well of a streptavidin-peroxidase solution (diluted in assay buffer to 80 ng/mL) at 4° C., followed by further washing steps with assay buffer (3×50 uL). Finally, 25 μL/well of ABTS substrate is added.
(§5) The calculated IC50 values may fluctuate depending on the daily assay performance. Fluctuations of this kind are known to those skilled in the art. IC50 values from several measurements are given as mean values.

[2] = target: human Gal-1 (hGal-1); assay: Competitive binding assay: binding of biotinylated hGal-1 to microplate-adsorbed asialofetuin (ASF); conditions: Activities on hGal-1; mean values of several measurements
Procedure: as §1, §2, §3, §4, §5

human Gal-3 (hGal-3), sequence (P17931 whole entry): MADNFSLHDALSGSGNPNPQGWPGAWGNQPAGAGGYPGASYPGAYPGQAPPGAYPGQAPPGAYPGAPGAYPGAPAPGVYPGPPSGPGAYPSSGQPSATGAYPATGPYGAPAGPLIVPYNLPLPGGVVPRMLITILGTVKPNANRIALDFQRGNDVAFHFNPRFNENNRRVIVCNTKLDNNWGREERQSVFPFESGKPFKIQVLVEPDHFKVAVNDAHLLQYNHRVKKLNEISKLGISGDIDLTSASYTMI
human Gal-1 (hGal-1), sequence (P09382 2-135 limits assumed): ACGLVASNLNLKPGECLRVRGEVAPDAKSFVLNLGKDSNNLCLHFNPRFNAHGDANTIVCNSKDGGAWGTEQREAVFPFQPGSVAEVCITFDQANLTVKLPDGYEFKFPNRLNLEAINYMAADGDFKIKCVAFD

IC50 [1] [µM]	IC50 [2] [µM]	Compound
0.046	0.96	1-(4-(3-(((2R,3R,4R,5R,6R)-3,5-dihydroxy-6-(hydroxymethyl)-4-(4-(3,4,5-trifluorophenyl)-1H-1,2,3-triazol-1-yl)tetrahydro-2H-pyran-2-yl)methyl)isoxazol-5-yl)piperidin-1-yl)ethan-1-one [Example 3.17]
0.3	5.71	OC[C@H]1O[C@H](CC2CC(C3CCNCC3)=NO2)[C@H](O)[C@@H](n2cc(-c3cc(F)c(F)c(F)c3)nn2)[C@H]1O (mixture of isomers) [Example 3.01, (2R,3R,4R,5R,6R)-2-(hydroxymethyl)-6-(((RS)-3-(piperidin-4-yl)-4,5-dihydroisoxazol-5-yl)methyl)-4-(4-(3,4,5-trifluorophenyl)-1H-1,2,3-triazol-1-yl)tetrahydro-2H-pyran-3,5-diol]
0.34	4.62	CN1CCC(C2=NOC(C[C@H]3O[C@H](CO)[C@H](O)[C@H](n4cc(-c5cc(F)c(F)c(F)c5)nn4)[C@H]3O)C2)CC1 (mixture of isomers) [Example 3.02, (2R,3R,4R,5R,6R)-2-(hydroxymethyl)-6-(((RS)-3-(1-methylpiperidin-4-yl)-4,5-dihydroisoxazol-5-yl)methyl)-4-(4-(3,4,5-trifluorophenyl)-1H-1,2,3-triazol-1-yl)tetrahydro-2H-pyran-3,5-diol]
0.15	2.49	CC(=O)N1CCC(C2=NOC(C[C@H]3O[C@H](CO)[C@H](O)[C@H](n4cc(-c5cc(F)c(F)c(F)c5)nn4)[C@H]3O)C2)CC1 (mixture of isomers) [Example 3.03, 1-(4-((RS)-5-(((2R,3R,4R,5R,6R)-3,5-dihydroxy-6-(hydroxymethyl)-4-(4-(3,4,5-trifluorophenyl)-1H-1,2,3-triazol-1-yl)tetrahydro-2H-pyran-2-yl)methyl)-4,5-dihydroisoxazol-3-yl)piperidin-1-yl)ethan-1-one]
0.55	5.65	CO[C@@H]1[C@@H](n2cc(-c3cc(F)c(F)c(F)c3)nn2)[C@@H](O)[C@@H](CO)O[C@@H]1CC1CC(C2CCNCC2)=NO1 (mixture of isomers) [Example 3.04, (2R,3R,4S,5R,6R)-2-(hydroxymethyl)-5-methoxy-6-(((RS)-3-(piperidin-4-yl)-4,5-dihydroisoxazol-5-yl)methyl)-4-(4-(3,4,5-trifluorophenyl)-1H-1,2,3-triazol-1-yl)tetrahydro-2H-pyran-3-ol]
0.29	1.86	CO[C@@H]1[C@@H](n2cc(-c3cc(F)c(F)c(F)c3)nn2)[C@@H](O)[C@@H](CO)O[C@@H]1CC1CC(C2CCN(C(C)=O)CC2)=NO1 (mixture of isomers) [Example 3.05, 1-(4-((RS)-5-(((2R,3R,4S,5R,6R)-5-hydroxy-6-(hydroxymethyl)-3-methoxy-4-(4-(3,4,5-trifluorophenyl)-1H-1,2,3-triazol-1-yl)tetrahydro-2H-pyran-2-yl)methyl)-4,5-dihydroisoxazol-3-yl)piperidin-1-yl)ethan-1-one]
0.84	13.3	OC[C@H]1O[C@H](CC2=NOC(C3CCNCC3)C2)[C@H](O)[C@@H](n2cc(-c3cc(F)c(F)c(F)c3)nn2)[C@H]1O (mixture of isomers) [Example 3.09, (2R,3R,4R,5R,6R)-2-(hydroxymethyl)-6-(((RS)-5-(piperidin-4-yl)-4,5-dihydroisoxazol-3-yl)methyl)-4-(4-(3,4,5-trifluorophenyl)-1H-1,2,3-triazol-1-yl)tetrahydro-2H-pyran-3,5-diol]
0.18	2.22	CC(=O)N1CCC(C2CC(C[C@H]3O[C@H](CO)[C@H](O)[C@H](n4cc(-c5cc(F)c(F)c(F)c5)nn4)[C@H]3O)=NO2)CC1 (mixture of isomers) [Example 3.18, 1-(4-((RS)-3-(((2R,3R,4R,5R,6R)-3,5-dihydroxy-6-(hydroxymethyl)-4-(4-(3,4,5-trifluorophenyl)-1H-1,2,3-triazol-1-yl)tetrahydro-2H-pyran-2-yl)methyl)-4,5-dihydroisoxazol-5-yl)piperidin-1-yl)ethan-1-one]
0.071		CO[C@@H]1[C@@H](n2cc(-c3cc(F)c(F)c(F)c3)nn2)[C@@H](O)[C@@H](CO)O[C@@H]1Cc1cc(C2CCN(C(=O)CC(F)(F)F)CC2)on1 [Example 3.51, 3,3,3-trifluoro-1-(4-(3-(((2R,3R,4S,5R,6R)-5-hydroxy-6-(hydroxymethyl)-3-methoxy-4-(4-(3,4,5-trifluorophenyl)-1H-1,2,3-triazol-1-yl)tetrahydro-2H-pyran-2-yl)methyl)isoxazol-5-yl)piperidin-1-yl)propan-1-one]

More lines, now with the values behind:

Compound	IC50 [1] [µM]	IC50 [2] [µM]
CO[C@@H]1[C@@H](n2cc(-c3cc(F)c(F)c(F)c3)nn2)[C@@H](O)[C@@H](CO)O[C@@H]1Cc1cc(C2CCNC2)on1 (mixture of isomers) [Example 2.08, (2R,3R,4S,5R,6R)-2-(hydroxymethyl)-5-methoxy-6-((5-((RS)-pyrrolidin-3-yl)isoxazol-3-yl)methyl)-4-(4-(3,4,5-trifluorophenyl)-1H-1,2,3-triazol-1-yl)tetrahydro-2H-pyran-3-ol]	0.65	4.5
CCO[C@@H]1[C@@H](n2cc(-c3cc(F)c(F)c(F)c3)nn2)[C@@H](O)[C@@H](CO)O[C@@H]1CC1CC(C2CCN(C(=O)OC(C)(C)C)CC2)=NO1 (mixture of isomers) [Example 2.31, tert-butyl 4-((RS)-5-(((2R,3R,4S,5R,6R)-3-ethoxy-5-hydroxy-6-(hydroxymethyl)-4-(4-(3,4,5-trifluorophenyl)-1H-1,2,3-triazol-1-yl)tetrahydro-2H-pyran-2-yl)methyl)-4,5-dihydroisoxazol-3-yl)piperidine-1-carboxylate]	0.3	1.29
CC(C)(C)OC(=O)N1CCC(C2=NOC(C[C@H]3O[C@H](CO)[C@H](O)[C@H](n4cc(-c5cc(F)c(F)c(F)c5)nn4)[C@H]3OCC(F)F)C2)CC1 (mixture of isomers) [Example 2.32, tert-butyl 4-((RS)-5-(((2R,3R,4S,5R,6R)-3-(2,2-difluoroethoxy)-5-hydroxy-6-(hydroxymethyl)-4-(4-(3,4,5-trifluorophenyl)-1H-1,2,3-triazol-1-yl)tetrahydro-2H-pyran-2-yl)methyl)-4,5-dihydroisoxazol-3-yl)piperidine-1-carboxylate]	0.35	2.96
COC(=O)CO[C@@H]1[C@@H](n2cc(-c3cc(F)c(F)c(F)c3)nn2)[C@@H](O)[C@@H](CO)O[C@@H]1CC1CC(C2CCN(C(=O)OC(C)(C)C)CC2)=NO1 (mixture of isomers) [Example 2.33, tert-butyl 4-((RS)-5-(((2R,3R,4S,5R,6R)-5-hydroxy-6-(hydroxymethyl)-3-(2-methoxy-2-oxoethoxy)-4-(4-(3,4,5-trifluorophenyl)-1H-1,2,3-triazol-1-yl)tetrahydro-2H-pyran-2-yl)methyl)-4,5-dihydroisoxazol-3-yl)piperidine-1-carboxylate]	0.31	2.45
CC(C)(C)OC(=O)N1CCC(C2=NOC(C[C@H]3O[C@H](CO)[C@H](O)[C@H](n4cc(-c5cc(F)c(F)c(F)c5)nn4)[C@H]3OCC(=O)O)C2)CC1 (mixture of isomers) [Example 2.34, 2-(((2R,3R,4S,5R,6R)-2-(((RS)-3-(1-(tert-butoxycarbonyl)piperidin-4-yl)-4,5-dihydroisoxazol-5-yl)methyl)-5-hydroxy-6-(hydroxymethyl)-4-(4-(3,4,5-trifluorophenyl)-1H-1,2,3-triazol-1-yl)tetrahydro-2H-pyran-3-yl)oxy)acetic acid]	0.068	1.19
CNC(=O)CO[C@@H]1[C@@H](n2cc(-c3cc(F)c(F)c(F)c3)nn2)[C@@H](O)[C@@H](CO)O[C@@H]1CC1CC(C2CCN(C(=O)OC(C)(C)C)CC2)=NO1 (mixture of isomers) [Example 2.35, tert-butyl 4-((RS)-5-(((2R,3R,4S,5R,6R)-5-hydroxy-6-(hydroxymethyl)-3-(2-(methylamino)-2-oxoethoxy)-4-(4-(3,4,5-trifluorophenyl)-1H-1,2,3-triazol-1-yl)tetrahydro-2H-pyran-2-yl)methyl)-4,5-dihydroisoxazol-3-yl)piperidine-1-carboxylate]	0.14	2.62
CC(C)(C)OC(=O)N1CCC(C2=NOC(C[C@H]3O[C@H](CO)[C@H](O)[C@H](n4cc(-c5cc(F)c(F)c(F)c5)nn4)[C@H]3OCC(=O)N3CCOCC3)C2)CC1 (mixture of isomers) [Example 2.36, tert-butyl 4-((RS)-5-(((2R,3R,4S,5R,6R)-5-hydroxy-6-(hydroxymethyl)-3-(2-morpholino-2-oxoethoxy)-4-(4-(3,4,5-trifluorophenyl)-1H-1,2,3-triazol-1-yl)tetrahydro-2H-pyran-2-yl)methyl)-4,5-dihydroisoxazol-3-yl)piperidine-1-carboxylate]	0.12	2.77
